Test results from PMC7830330, “A New CDK2 Inhibitor with 3-Hydrazonoindolin-2-One Scaffold Endowed with Anti-Breast Cancer Activity: Design, Synthesis, Biological Evaluation, and In Silico Insights” (Molecules, 2021).
pIC50: −log10 of the molar value.

Experiments:
Assay type in all cases: biochemical
CDK2 = molecular target: T1, CDK2 (Homo sapiens, UniProt P24941); assay: in vitro kinase assay, dose-response on CDK2/E (Kinase-Glo Plus luminescence described for CDK2/cyclin A2)
T1 construct: with cyclin E (IC50)

c-Met [1] = molecular target: T2, c-Met (Homo sapiens, UniProt P08581); assay: Kinase-Glo Plus luminescence kinase assay, single dose […] (weak, partial inhibition)
c-Met [2] = molecular target: T2, c-Met; assay: Kinase-Glo Plus luminescence kinase assay, single dose […]

T2 sequence (P08581 25-307): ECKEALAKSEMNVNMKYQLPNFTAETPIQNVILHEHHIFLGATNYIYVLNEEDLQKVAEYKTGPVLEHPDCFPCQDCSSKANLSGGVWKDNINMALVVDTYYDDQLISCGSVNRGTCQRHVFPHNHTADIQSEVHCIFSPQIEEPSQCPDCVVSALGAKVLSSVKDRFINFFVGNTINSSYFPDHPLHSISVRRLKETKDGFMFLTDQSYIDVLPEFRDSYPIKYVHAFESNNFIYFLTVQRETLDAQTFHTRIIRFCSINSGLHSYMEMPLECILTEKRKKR
T2 sequence (P08581 308-1390): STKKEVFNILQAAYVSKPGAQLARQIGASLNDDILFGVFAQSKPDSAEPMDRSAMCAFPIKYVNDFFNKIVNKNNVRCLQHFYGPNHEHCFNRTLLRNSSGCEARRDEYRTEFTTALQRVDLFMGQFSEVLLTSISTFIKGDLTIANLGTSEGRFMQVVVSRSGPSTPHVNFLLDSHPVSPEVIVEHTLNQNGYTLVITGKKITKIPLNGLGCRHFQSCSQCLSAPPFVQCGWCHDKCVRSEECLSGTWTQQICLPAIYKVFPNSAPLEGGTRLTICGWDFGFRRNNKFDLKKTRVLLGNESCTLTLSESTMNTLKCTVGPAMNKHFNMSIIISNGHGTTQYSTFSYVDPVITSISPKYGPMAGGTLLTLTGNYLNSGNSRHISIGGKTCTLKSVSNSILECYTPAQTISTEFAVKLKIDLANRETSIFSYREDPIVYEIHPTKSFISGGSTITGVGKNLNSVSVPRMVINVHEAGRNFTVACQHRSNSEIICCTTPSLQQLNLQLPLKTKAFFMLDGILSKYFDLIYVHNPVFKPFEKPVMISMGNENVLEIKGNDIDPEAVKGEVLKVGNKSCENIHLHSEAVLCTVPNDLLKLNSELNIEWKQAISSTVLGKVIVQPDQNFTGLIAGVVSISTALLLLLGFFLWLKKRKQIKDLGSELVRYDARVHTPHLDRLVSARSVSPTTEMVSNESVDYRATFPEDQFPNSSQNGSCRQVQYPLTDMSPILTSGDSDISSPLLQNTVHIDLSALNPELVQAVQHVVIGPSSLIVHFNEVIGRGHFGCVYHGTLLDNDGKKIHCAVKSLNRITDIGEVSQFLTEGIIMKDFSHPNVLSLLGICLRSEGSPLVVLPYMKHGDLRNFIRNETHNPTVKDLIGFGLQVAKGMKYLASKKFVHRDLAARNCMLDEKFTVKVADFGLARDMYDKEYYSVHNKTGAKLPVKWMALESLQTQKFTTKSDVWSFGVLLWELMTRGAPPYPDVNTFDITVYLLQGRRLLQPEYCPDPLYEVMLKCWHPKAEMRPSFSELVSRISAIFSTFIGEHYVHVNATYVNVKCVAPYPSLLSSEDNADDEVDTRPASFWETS

SMILES	pIC50 (CDK2)	inhibition at 10 µM (c-Met [1])	inhibition at 10 µM (c-Met [2])
COc1ccc2c(c1)/C(=N\NC(=O)Cc1c[nH]c3ccccc13)C(=O)N2 [HI 5]	5.20	27%	
CN[C@@H]1C[C@H]2O[C@@](C)([C@@H]1OC)n1c3ccccc3c3c4c(c5c6ccccc6n2c5c31)C(=O)NC4 [Staurosporine]			100%
